Source: patent publication US10766865B2, “PKM2 modulators and methods for their use” (TOLERO PHARMACEUTICALS, INC., priority 2012, dated 2020)

Biological target: PKM2 (Homo sapiens, UniProt P14618)
Test: PKM2 Biochemical Assay
Details: for Max. Resp.: % maximum response in a biochemical assay as compared with Fructose 1,6-bisphosphate

Chain of PKM2 (P14618 whole entry): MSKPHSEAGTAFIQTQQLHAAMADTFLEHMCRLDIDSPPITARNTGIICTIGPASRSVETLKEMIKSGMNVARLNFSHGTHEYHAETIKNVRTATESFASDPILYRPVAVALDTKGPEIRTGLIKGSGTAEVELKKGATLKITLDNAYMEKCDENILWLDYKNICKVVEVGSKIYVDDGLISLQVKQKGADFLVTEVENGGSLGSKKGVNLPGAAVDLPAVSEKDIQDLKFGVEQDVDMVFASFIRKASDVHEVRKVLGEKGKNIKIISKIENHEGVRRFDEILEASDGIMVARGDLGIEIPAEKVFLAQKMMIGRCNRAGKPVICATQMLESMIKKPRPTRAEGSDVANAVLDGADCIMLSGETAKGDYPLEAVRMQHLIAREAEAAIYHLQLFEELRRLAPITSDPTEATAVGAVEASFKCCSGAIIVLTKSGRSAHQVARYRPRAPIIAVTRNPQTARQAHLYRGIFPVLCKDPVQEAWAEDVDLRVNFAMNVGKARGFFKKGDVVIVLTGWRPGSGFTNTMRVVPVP

Row | Structure (SMILES) | Max. Resp. | AC50
1 | CN(C)CCCN(Cc1ccccc1Cl)C(=O)c1cc(C(F)(F)F)n[nH]1 [Example 186, N-(2-chlorobenzyl)-N-(3-(dimethylamino)propyl)-3-(trifluoromethyl)-1H-pyrazole-5-carboxamide] | 100% | –
2 | CS(=O)(=O)N1CCCC(CCN(Cc2ccccc2Cl)C(=O)c2cc(C(F)(F)F)n[nH]2)C1 (stereo not shown) [Example 228, N-(2-chlorobenzyl)-N-(2-(1-(methylsulfonyl)piperidin-3-yl)ethyl)-3-(trifluoromethyl)-1H-pyrazole-5-carboxamide] | 100% | –
3 | O=C(c1cc(C(F)(F)F)n[nH]1)N(CCO)Cc1ccc(O)cc1F [Example 137, N-(2-fluoro-4-hydroxybenzyl)-3-(trifluoromethyl)-N-(2-hydroxyethyl)-1H-pyrazole-5-carboxamide] | 70% | –
4 | O=C(c1cc(C(F)(F)F)n[nH]1)N(CCN1CCCC1)Cc1c(F)cccc1Cl [Example 177, N-(2-chloro-6-fluorobenzyl)-3-(trifluoromethyl)-N-(2-(pyrrolidin-1-yl)ethyl)-1H-pyrazole-5-carboxamide] | 100% | –
5 | CC(CN(Cc1ccccc1Cl)C(=O)c1cc(C(F)(F)F)n[nH]1)N1CCCC1 (stereo not shown) [Example 181, N-(2-chlorobenzyl)-3-(trifluoromethyl)-N-(2-(pyrrolidin-1-yl)propyl)-1H-pyrazole-5-carboxamide] | 100% | –
6 | CC1CC(C)CN(CCN(Cc2ccccc2Cl)C(=O)c2cc(C(F)(F)F)n[nH]2)C1 (stereo not shown) [Example 188, N-(2-chlorobenzyl)-3-(trifluoromethyl)-N-(2-(3,5-dimethylpiperidin-1-yl)ethyl)-1H-pyrazole-5-carboxamide] | 60% | –
7 | CCN(CC)CCN(Cc1cccc(N)c1)C(=O)c1cc(C(F)(F)F)n[nH]1 [Example 154, N-(3-aminobenzyl)-N-(2-(diethylamino)ethyl)-3-(trifluoromethyl)-1H-pyrazole-5-carboxamide] | 100% | –
8 | CCN1CCCC1CN(Cc1ccccc1Cl)C(=O)c1cc(C(F)(F)F)n[nH]1 (stereo not shown) [Example 231, N-(2-chlorobenzyl)-N-((1-ethylpyrrolidin-2-yl)methyl)-3-(trifluoromethyl)-1H-pyrazole-5-carboxamide] | 65% | 0.148 µM
9 | O=C(c1cc(C(F)(F)F)n[nH]1)N(CCN1CCS(=O)(=O)CC1)Cc1c(F)cccc1F [Example 109] | 94% | –
10 | CN1CCN(CCN(Cc2ccccc2F)C(=O)c2cc(C(F)(F)F)n[nH]2)CC1 [Example 103] | 42% | –
11 | O=C(c1cc(C(F)(F)F)n[nH]1)N(CCN1CCCCCC1)Cc1cccc([N+](=O)[O-])c1Cl [Example 210, N-(2-chloro-3-nitrobenzyl)-N-(2-(azepan-1-yl)ethyl)-3-(trifluoromethyl)-1H-pyrazole-5-carboxamide] | 100% | –
12 | Nc1cccc(CN(CCN2CCS(=O)(=O)CC2)C(=O)c2cc(C(F)(F)F)n[nH]2)c1 [Example 112] | 91% | –
13 | CC(C)O[C@H]1CC[C@H](N(Cc2ccccc2Cl)C(=O)c2cc(C(F)(F)F)n[nH]2)CC1 [Example 53] | 63% | –
14 | CC1CCCCN1CCN(Cc1cc(N)ccc1Cl)C(=O)c1cc(C(F)(F)F)n[nH]1 (stereo not shown) [Example 202, N-(5-amino-2-chlorobenzyl)-3-(trifluoromethyl)-N-(2-(2-methylpiperidin-1-yl)ethyl)-1H-pyrazole-5-carboxamide] | 100% | –
15 | CCN(CC)CCN(Cc1ccc(O)cc1F)C(=O)c1cc(C(F)(F)F)n[nH]1 [Example 143, N-(2-fluoro-4-hydroxybenzyl)-N-(2-(diethylamino)ethyl)-3-(trifluoromethyl)-1H-pyrazole-5-carboxamide] | 100% | –
16 | CC(CN(Cc1c(N)cccc1Cl)C(=O)c1cc(C(F)(F)F)n[nH]1)N1CCCC1 (stereo not shown) [Example 221, N-(2-amino-6-chlorobenzyl)-3-(trifluoromethyl)-N-(2-(pyrrolidin-1-yl)propyl)-1H-pyrazole-5-carboxamide] | 60% | –
17 | CCC1CCN(CCN(Cc2ccccc2Cl)C(=O)c2cc(C(F)(F)F)n[nH]2)CC1 [Example 199, N-(2-chlorobenzyl)-N-(2-(4-ethylpiperidin-1-yl)ethyl)-3-(trifluoromethyl)-1H-pyrazole-5-carboxamide] | 100/100% | –
18 | CCN(CC)CCN(Cc1c(Cl)cccc1Cl)C(=O)c1cc(C(F)(F)F)n[nH]1 [Example 169, N-(2,6-dichlorobenzyl)-N-(2-(diethylamino)ethyl)-3-(trifluoromethyl)-1H-pyrazole-5-carboxamide] | 100% | –
19 | O=C(c1cc(C(F)(F)F)n[nH]1)N(Cc1ccc(O)cc1F)CC1COC1 [Example 15] | 102% | –
20 | O=C(c1cc(C(F)(F)F)n[nH]1)N(CCN1CCCCC1)Cc1c(Cl)cccc1Cl [Example 180, N-(2,6-dichlorobenzyl)-3-(trifluoromethyl)-N-(2-(piperidin-1-yl)ethyl)-1H-pyrazole-5-carboxamide] | 100% | –
21 | CCN(CC)CCN(Cc1ccc(F)cc1Cl)C(=O)c1cc(C(F)(F)F)n[nH]1 [Example 170, N-(2-chloro-4-fluorobenzyl)-N-(2-(diethylamino)ethyl)-3-(trifluoromethyl)-1H-pyrazole-5-carboxamide] | 100% | –

Row | Structure (SMILES) | Max. Resp. | AC50
22 | CCN(CC)CCN(Cc1cccc2[nH]ccc12)C(=O)c1cc(C(F)(F)F)n[nH]1 [Example 161, N-((1H-indol-4-yl)methyl)-N-(2-(diethylamino)ethyl)-3-(trifluoromethyl)-1H-pyrazole-5-carboxamide] | 100% | –
23 | O=C(c1cc(Cl)n[nH]1)N(CCC1CCSCC1)Cc1ccccc1F [Example 80] | 46% | –
24 | CCN1CCN(CCN(Cc2ccccc2F)C(=O)c2cc(C(F)(F)F)n[nH]2)CC1 [Example 106] | 115% | –
25 | CCOCCCN(Cc1ccccc1Cl)C(=O)c1cc(C(F)(F)F)n[nH]1 [Example 38] | 47% | –
26 | O=C(c1cc(C(F)(F)F)n[nH]1)N(CCC1CCCCO1)Cc1ccccc1Cl (stereo not shown) [Example 44] | 32% | –
27 | O=C(c1cc(C(F)(F)F)n[nH]1)N(CCC1CCOCC1)Cc1ccccc1Cl [Example 32] | 107% | –
28 | O=C(c1cc(Cl)n[nH]1)N(Cc1cccc2[nH]c(=O)sc12)CC1CCC1 [Example 9, 3-Chloro-N-(cyclobutylmethyl)-N-((2-oxo-2,3-dihydrobenzo[d]thiazol-7-yl)methyl)-1H-pyrazole-5-carboxamide] | 80% | –
29 | Nc1cccc(Cl)c1CN(CC1CCN1)C(=O)c1cc(C(F)(F)F)n[nH]1 (stereo not shown) [Example 233, N-(2-amino-6-chlorobenzyl)-N-((azetidin-2-yl)methyl)-3-(trifluoromethyl)-1H-pyrazole-5-carboxamide] | 75% | –
30 | O=C(c1cc(C(F)(F)F)n[nH]1)N(Cc1cccc(Cl)c1O)CC1CCC1 [Example 141, N-(3-chloro-2-hydroxybenzyl)-N-(cyclobutylmethyl)-3-(trifluoromethyl)-1H-pyrazole-5-carboxamide] | 100% | –
31 | O=C(c1cc(C(F)(F)F)n[nH]1)N(CCC1CCCOC1)Cc1ccccc1Cl (stereo not shown) [Example 36] | 88% | –
32 | CO[C@H]1CC[C@H](N(Cc2ccccc2Cl)C(=O)c2cc(C(F)(F)F)n[nH]2)CC1 [Example 52] | 100% | –
33 | CC(C)OCCN(Cc1ccccc1Cl)C(=O)c1cc(C(F)(F)F)n[nH]1 [Example 37] | 37% | –
34 | O=C(c1cc(Br)n[nH]1)N(Cc1ccc(O)cc1Cl)CC1CCC1 [Example 125, N-(2-chloro-4-hydroxybenzyl)-3-bromo-N-(cyclobutylmethyl)-1H-pyrazole-5-carboxamide] | 100% | –
35 | CCN(CC)CCN(Cc1cccc(Cl)c1Cl)C(=O)c1cc(C(F)(F)F)n[nH]1 [Example 167, N-(2,3-dichlorobenzyl)-N-(2-(diethylamino)ethyl)-3-(trifluoromethyl)-1H-pyrazole-5-carboxamide] | 100% | –
36 | O=C(c1cc(C(F)(F)F)n[nH]1)N(CCC1CCS(=O)(=O)C1)Cc1c(F)cccc1F (stereo not shown) [Example 66] | 102% | –
37 | O=C(c1cc(C(F)(F)F)n[nH]1)N(Cc1cccc2[nH]ccc12)NC1CCC1 [Example 135, N-((1H-INDOL-4-YL)METHYL)-N′-CYCLOBUTYL-3-(TRIFLUOROMETHYL)-1H-PYRAZOLE-5-CARBOHYDRAZIDE] | 100% | –
38 | Nc1cccc(Cl)c1CN(CCN1CCCC(O)C1)C(=O)c1cc(C(F)(F)F)n[nH]1 (stereo not shown) [Example 225, N-(2-amino-6-chlorobenzyl)-3-(trifluoromethyl)-N-(2-(3-hydroxypiperidin-1-yl)ethyl)-1H-pyrazole-5-carboxamide] | 100% | –
39 | CC1CCCCN1CCN(Cc1ccccc1F)C(=O)c1cc(C(F)(F)F)n[nH]1 (stereo not shown) [Example 203, N-(2-fluorobenzyl)-3-(trifluoromethyl)-N-(2-(2-methylpiperidin-1-yl)ethyl)-1H-pyrazole-5-carboxamide] | 100% | –
40 | O=C(c1cc(C(F)(F)F)n[nH]1)N(Cc1ccc(O)cc1F)C1CCCC1 [Example 132, N-(2-fluoro-4-hydroxybenzyl)-N-cyclopentyl-3-(trifluoromethyl)-1H-pyrazole-5-carboxamide] | 100% | –
41 | O=C(c1cc(C(F)(F)F)n[nH]1)N(CCC1CCS(=O)(=O)C1)Cc1cccc([N+](=O)[O-])c1Cl (stereo not shown) [Example 94, N-(2-chloro-3-nitrobenzyl)-N-(2-(1,1-dioxidotetrahydrothiophen-3-yl)ethyl)-3-(trifluoromethyl)-1H-pyrazole-5-carboxamide] | 69% | –
42 | O=C(c1cc(C(F)(F)F)n[nH]1)N(CCC1CCS(=O)(=O)C1)Cc1cncs1 (stereo not shown) [Example 93] | 26% | –
